Measured values from patent US20220257491A1, “Prebiotic Oral Care Compositions and Methods” (Colgate-Palmolive Company, priority 2021, published 2022).
“And” between values parts separate entries of the source, which are not always exact repeats. Equal entries are not always repeated.

What was measured:
Format in all cases: cell-based
A. viscosus = assay: Multi-species biofilm composition: absolute abundance of A. viscosus; conditions: mean±SD n=3
Description: (§1) Biofilms are grown vertically on Calcium Deficient Hydroxyapatite (CAD-HA) disks (Hitemco Medical, Old Bethpage, USA) using the Amsterdam Active Adhesion model. Biofilms are allowed to establish during 24 h (37° C., 170 rpm) under micro-aerophilic conditions (6% O2, 7% CO2, 7% H2, 80% N2). After this 24 h, disks are rinsed 3 times a day for 3 minutes (RT, 250 rpm), for 3 consecutive days, by transferring the lid containing the disks to a new 24-well plate containing 2 mL/well of the appropriate substrate solution. As a negative control, PBS (pH 5.7) without substrate supplementation is used. After each rinsing step, disks are shortly dip-rinsed in a new 24-well plate containing fresh modified BHI medium (2 mL/well) to remove remaining substrate traces. Subsequently, the lid is transferred to another 24-well plate containing fresh modified BHI medium (2 mL/well), followed by incubation (micro-aerophilic, 37° C., 170 rpm) until the next rinsing step.
(§2) NADM, N-acetyl-D-glucosamine (“NADG”) and D-(+)-mannose are selected to determine their effects on multi-species biofilm composition. […] decrease in absolute numbers in at least four of the pathogenic bacterial species tested in the assay, compared to the control, the results of which are described in Table 1 below. Absolute abundances of bacterial species are shown as mean±SD (n=3) logarithmic values of the genome equivalents per millilitre (log(Geq/mL)).

multi-species biofilms = assay: Multi-species biofilm organic acid balances (supernatant); conditions: >0 production, <0 consumption, mean±SD n=3
Description: as §1
To examine the effect of NADM and the influence of the orientation and absence/presence of the N-acetyl group on organic acid production and consumption, supernatant samples from substrate-treated or untreated multi-species biofilms are analysed. […] When comparing relevant significant differences between substrate conditions, an increase in acetate production is observed for NADM compared to D-(+)-mannose (3084±174 vs. 1934±56 mg/L).

S. sanguinis = assay: Multi-species biofilm composition: absolute abundance of S. sanguinis; conditions: mean±SD n=3
Description: as §1, §2

P. intermedia = assay: Multi-species biofilm composition: absolute abundance of P. intermedia; conditions: mean±SD n=3
Description: as §1
(§3) NADM, N-acetyl-D-glucosamine (“NADG”) and D-(+)-mannose are selected to determine their effects on multi-species biofilm composition. Repeated rinsing of the biofilms with the substrates at a concentration of 1M results in a significant decrease in absolute numbers in at least four of the pathogenic bacterial species tested in the assay, compared to the control, the results of which are described in Table 1 below. Absolute abundances of bacterial species are shown as mean±SD (n=3) logarithmic values of the genome equivalents per millilitre (log(Geq/mL)).

[1] = tested on: F. nucleatum virulence genes; assay: Multi-species biofilm virulence gene expression, SYBR RT-qPCR: F. nucleatum; conditions: for Fold Change in virulence gene expression: ABC transp. perm. / Fold Change in virulence gene expression: EF-G / Fold Change in virulence gene expression: but.-coA transf. / Fold Change in virulence gene expression: hemin receptor / Fold Change in virulence gene expression: hemolysin / Fold Change in virulence gene expression: ompA / Fold Change in virulence gene expression: transposase: relative to control (=1), 2^-ΔΔCt, geometric mean n=3
Description: as §1
(§4) The expression of 33 virulence genes from 4 periodontal pathogens is analysed to evaluate the relative virulence of the substrate-treated biofilms. For all three substrates, virulence gene expression is determined relatively to the control, and these values are also compared between substrates when this is relevant (Tables 5a-5d).

multi-species biofilm = assay: Relative multi-species biofilm composition (groups of bacterial species)
Description: as §1, §2
Relative abundances of the different groups (beneficial/commensals, periodontal pathogens, cariogenic pathogens) of bacterial species are shown as mean±SD (n=3) percentage of the genome equivalents per millilitre (% (Geq/mL)). […] NADM: N-acetyl-D-mannosamine; NADG: N-acetyl-D-glucosamine.

S. mitis = assay: Multi-species biofilm composition: absolute abundance of S. mitis; conditions: mean±SD n=3
Description: as §1, §2

[2] = tested on: P. gingivalis virulence genes; assay: Multi-species biofilm virulence gene expression, SYBR RT-qPCR: P. gingivalis; conditions: for Fold Change in virulence gene expression: fimA / Fold Change in virulence gene expression: kgp / Fold Change in virulence gene expression: partC / Fold Change in virulence gene expression: rgpA: relative to control, 2^-ΔΔCt, geometric mean n=3
Description: as §1, §4

[3] = tested on: P. intermedia virulence genes; assay: Multi-species biofilm virulence gene expression, SYBR RT-qPCR: P. intermedia; conditions: for Fold Change in virulence gene expression: DnaJ / Fold Change in virulence gene expression: DnaK / Fold Change in virulence gene expression: ECF / Fold Change in virulence gene expression: GroES / Fold Change in virulence gene expression: HtpG / Fold Change in virulence gene expression: KpsD / Fold Change in virulence gene expression: adpc / Fold Change in virulence gene expression: clpB / Fold Change in virulence gene expression: inpA / Fold Change in virulence gene expression: phg: relative to control (=1), 2^-ΔΔCt, geometric mean n=3
Description: as §1, §4

S. salivarius = assay: Multi-species biofilm composition: absolute abundance of S. salivarius; conditions: mean±SD n=3
Description: as §1, §3

F. nucleatum = assay: Multi-species biofilm composition: absolute abundance of F. nucleatum; conditions: mean±SD n=3
Description: as §1, §2

[4] = substrate 1%(w/v) in PBS, mean±SD n=3
[5] = substrate 1 M in PBS, mean±SD n=3

## CC(=O)N[C@H]1C(O)O[C@H](CO)[C@@H](O)[C@@H]1O (stereo partly drawn) [NADG, N-acetyl-D-glucosamine, reference compound]
A. viscosus; substrate 1%(w/v) in PBS
  Absolute abundance Av (A. viscosus): 7.83 ± 0.31 log(Geq/mL)
A. viscosus; substrate 1 M in PBS
  Absolute abundance Av (A. viscosus): 6.92 ± 0.45 log(Geq/mL)
multi-species biofilms; substrate 1%(w/v)
  acetate level in biofilm supernatant: 379 ± 10 mg/L
  butyrate level in biofilm supernatant: 2238 ± 59 mg/L
  formate level in biofilm supernatant: 4315 ± 198 mg/L
  lactate level in biofilm supernatant: 125 ± 0 mg/L
  propionate level in biofilm supernatant: 2205 ± 89 mg/L
multi-species biofilms; substrate 1 M
  acetate level in biofilm supernatant: 3815 ± 77 mg/L
  butyrate level in biofilm supernatant: 1255±51 mg/L and 1255 ± 51*^, #1, 3 mg/L
  formate level in biofilm supernatant: 352 ± 18 mg/L
  lactate level in biofilm supernatant: 125 ± 0 mg/L
  propionate level in biofilm supernatant: 2750 ± 40 mg/L
S. sanguinis; substrate 1%(w/v) in PBS
  Absolute abundance S. sang. (S. sanguinis): 8.4 ± 0.11 log(Geq/mL)
S. sanguinis; substrate 1 M in PBS
  Absolute abundance S. sang. (S. sanguinis): 8.11 ± 0.68 log(Geq/mL)
P. intermedia; substrate 1%(w/v) in PBS
  Absolute abundance Pi (P. intermedia): 8.17 ± 0.22 log(Geq/mL)
P. intermedia; substrate 1 M in PBS
  Absolute abundance Pi (P. intermedia): 6.93 ± 0.62 log(Geq/mL)
[1]; substrate 1%
  Fold Change in virulence gene expression: ABC transp. perm.: 0.33 fold
  Fold Change in virulence gene expression: EF-G: 0.10 fold
  Fold Change in virulence gene expression: but.-coA transf.: 0.21 fold
  Fold Change in virulence gene expression: hemin receptor: 0.19 fold
  Fold Change in virulence gene expression: hemolysin: 0.79 fold
  Fold Change in virulence gene expression: ompA: 0.74 fold
  Fold Change in virulence gene expression: transposase: 0.98 fold
[1]; substrate 1 M
  F. nucleatum hemolysin gene, upregulation: 1.9 fold
[1]; substrate 1M
  Fold Change in virulence gene expression: ABC transp. perm.: 3.33 fold
  Fold Change in virulence gene expression: EF-G: 1.45 fold
  Fold Change in virulence gene expression: but.-coA transf.: 1.21 fold
  Fold Change in virulence gene expression: hemin receptor: 3.26 fold
  Fold Change in virulence gene expression: hemolysin: 1.90 fold
  Fold Change in virulence gene expression: ompA: 1.33 fold
  Fold Change in virulence gene expression: transposase: 1.27 fold
multi-species biofilm; [4]
  Relative abundance Beneficials/Commensals: 60.07 ± 8.25 % (Geq/mL)
  Relative abundance Cariogenic Pathogens: 0.66±0.27 % (Geq/mL)
  Relative abundance Periodontal Pathogens: 39.27 ± 7.98 % (Geq/mL)
multi-species biofilm; [5]
  Relative abundance Beneficial or commensals: 97.52±0.82 % (Geq/mL)
  Relative abundance Cariogenic Pathogens: 2.35 ± 0.92 % (Geq/mL)
  Relative abundance Periodontal Pathogens: 0.13±0.10 % (Geq/mL) and 0.13 ± 0.10 *^, #1 % (Geq/mL)
multi-species biofilm; substrate 1 M, range over the species
  Decreases in A. actinomycetemcomitans, F. nucleatum, P. gingivalis, P. intermedia and S. sobrinus numbers vs control: −1.5 to −2.5 log(Geq/mL)
S. mitis; substrate 1%(w/v) in PBS
  Absolute abundance S. mitis: < LOD
S. mitis; substrate 1 M in PBS
  Absolute abundance S. mitis: <LOD
[2]; substrate 1%(w/v)
  P. gingivalis partC expression decrease: 2.8 fold
[2]; substrate 1%
  Fold Change in virulence gene expression: fimA: 1.15 fold
  Fold Change in virulence gene expression: kgp: 1.81 fold
  Fold Change in virulence gene expression: partC: 0.36 fold
  Fold Change in virulence gene expression: rgpA: 1.31 fold
[2]; substrate 1M
  Fold Change in virulence gene expression: fimA: 0.79 fold
  Fold Change in virulence gene expression: kgp: 0.07 fold
  Fold Change in virulence gene expression: partC: 0.19 fold
  Fold Change in virulence gene expression: rgpA: 0.39 fold
[3]; substrate 1%(w/v), D-(+)-mannose for 3 genes
  Relative P. intermedia virulence gene expression, downregulation: unaffected
[3]; substrate 1%
  Fold Change in virulence gene expression: DnaJ: 0.7 fold
  Fold Change in virulence gene expression: DnaK: 0.77 fold
  Fold Change in virulence gene expression: ECF: 0.48 fold
  Fold Change in virulence gene expression: GroES: 0.75 fold
  Fold Change in virulence gene expression: HtpG: 0.46 fold
  Fold Change in virulence gene expression: KpsD: 0.78 fold
  Fold Change in virulence gene expression: adpc: 0.67 fold
  Fold Change in virulence gene expression: clpB: 1.06 fold
  Fold Change in virulence gene expression: inpA: 0.53 fold
  Fold Change in virulence gene expression: phg: 0.69 fold
[3]; substrate 1 M, range over genes
  P. intermedia virulence gene expression, increases: 2- to 20.3 fold
[3]; substrate 1M
  Fold Change in virulence gene expression: DnaJ: 0.64 fold
  Fold Change in virulence gene expression: DnaK: 2.34 fold
  Fold Change in virulence gene expression: ECF: 20.32 fold
  Fold Change in virulence gene expression: GroES: 1.86 fold
  Fold Change in virulence gene expression: HtpG: 3.40 fold
  Fold Change in virulence gene expression: KpsD: 1.72 fold
  Fold Change in virulence gene expression: adpc: 2.65 fold
  Fold Change in virulence gene expression: clpB: 2.03 fold
  Fold Change in virulence gene expression: inpA: 4.52 fold
  Fold Change in virulence gene expression: phg: 0.57 fold
S. salivarius; substrate 1%(w/v) in PBS
  Absolute abundance S. sal. (S. salivarius): 2.65 ± 0.00 log(Geq/mL)
S. salivarius; substrate 1 M in PBS
  Absolute abundance S. sal. (S. salivarius): 4.38 ± 1.23 log(Geq/mL)
F. nucleatum; substrate 1%(w/v) in PBS
  Absolute abundance Fn (F. nucleatum): 9.41 ± 0.19 log(Geq/mL)
F. nucleatum; substrate 1 M in PBS
  Absolute abundance Fn (F. nucleatum): 7.09 ± 0.30 log(Geq/mL)
